In ChEMBL document CHEMBL1147352, “Paniceins and related sesquiterpenoids from the Mediterranean sponge Reniera fulva” (1993):

Legend:
CCRF-CEM = experiment: Cytotoxicity against human CCRF-CEM cells; type: functional; conditions: for GI50: read-out: Log10GI50 (converted); for TGI: read-out: Log10TGI (converted)
NCI-H522 = experiment: Cytotoxicity against human NCI-H522 cells; type: functional; conditions: for GI50: read-out: Log10GI50 (converted); for CC50: read-out: Log10LC50 (converted); for TGI: read-out: Log10TGI (converted)

Compound	GI50 (CCRF-CEM) [µM]	CC50 (CCRF-CEM; read-out: Log10LC50 (converted)) [µM]	TGI (CCRF-CEM) [µM]	GI50 (NCI-H522) [µM]	CC50 (NCI-H522) [µM]	TGI (NCI-H522) [µM]
COc1cc(C)c(CC/C(C)=C/Cc2cc(O)ccc2O)c(C)c1C [PANICEIN A HYDROQUINONE]	7.76	> 25.1	> 25.1			
C/C(=C\Cc1cc(O)ccc1O)CCc1c(C)cc(O)c(C=O)c1C [PANICEIN B3]	4.47		30.2	10	55	23.4
C/C(=C\Cc1cc(O)ccc1O)CCc1c(C)c(O)c(O)c(C=O)c1C [PANICEIN C]	3.31		9.55	5.25	63.1	21.4
